Series [1] has as its system Hordeum vulgare. The series is described as follows: Phytotoxicity against Hordeum vulgare (barley) at 500 g a.i./ha applied post-emergence measured after 15 days. The series is classed as organism-based. To be noted: in vivo, other, 360 h.
The subject of series [2] is Setaria faberi. The series is described as follows: Post-emergence herbicidal activity against Setaria faberi (Giant Foxtail) at 500 g a.i./ha measured after 15 days. Type of series: functional.
Series [3] relates to Lolium perenne. The series is described as follows: Post-emergence herbicidal activity against Lolium perenne (perennial ryegrass) at 500 g a.i./ha measured after 15 days. Type of series: functional.
The subject of series [4] is Avena fatua. Briefly: Post-emergence herbicidal activity against Avena fatua at 500 g a.i./ha measured after 15 days. The series is classed as functional.
Series [5] concerns Alopecurus myosuroides. Briefly: Post-emergence herbicidal activity against Alopecurus myosuroides at 500 g a.i./ha measured after 15 days. The series is classed as functional.
Series [6] has as its system Triticum aestivum. Briefly: Phytotoxicity against Triticum aestivum (wheat) at 500 g a.i./ha applied post-emergence measured after 15 days. The series is classed as organism-based. To be noted: in vivo, other, 360 h.
Series [7] relates to Lolium perenne. The series is described as follows: Post-emergence herbicidal activity against Lolium perenne (perennial ryegrass) at 30 g a.i./ha measured after 21 days in presence of 1% Merge adjuvant. Type of series: functional.
Series [8] concerns Alopecurus myosuroides. The series is described as follows: Post-emergence herbicidal activity against Alopecurus myosuroides at 30 g a.i./ha measured after 21 days in presence of 1% Merge adjuvant. The series is classed as functional.
The subject of series [9] is Avena fatua. Briefly: Post-emergence herbicidal activity against Avena fatua at 30 g a.i./ha measured after 21 days in presence of 1% Merge adjuvant. The series is classed as functional.
Series [10] has as its system Triticum aestivum. Briefly: Phytotoxicity against Triticum aestivum (wheat) at 30 g a.i./ha applied post-emergence measured after 21 days in presence of 1% Merge adjuvant. The series is classed as organism-based. To be noted: in vivo, other, 504 h.
Series [11] has as its system Hordeum vulgare. The series is described as follows: Phytotoxicity against Hordeum vulgare (barley) at 30 g a.i./ha applied post-emergence measured after 21 days in presence of 1% Merge adjuvant. The series is classed as organism-based. To be noted: in vivo, other, 504 h.
Series [12] has as its system Setaria faberi. Briefly: Post-emergence herbicidal activity against Setaria faberi (Giant Foxtail) at 30 g a.i./ha measured after 21 days in presence of 1% Merge adjuvant. Type of series: functional.
The test system of series [13] is Setaria faberi. Briefly: Post-emergence herbicidal activity against Setaria faberi (Giant Foxtail) at 2000 g a.i./ha after 21 days. Type of series: functional.
In series [14] the test system is Lolium perenne. The series is described as follows: Post-emergence herbicidal activity against Lolium perenne (perennial ryegrass) at 500 g a.i./ha after 21 days. Type of series: functional.
The subject of series [15] is Lolium perenne. Briefly: Post-emergence herbicidal activity against Lolium perenne (perennial ryegrass) at 2000 g a.i./ha after 21 days. The series is classed as functional.
The test system of series [16] is Avena fatua. Briefly: Post-emergence herbicidal activity against Avena fatua at 500 g a.i./ha after 21 days. The series is classed as functional.
The test system of series [17] is Avena fatua. Briefly: Post-emergence herbicidal activity against Avena fatua at 2000 g a.i./ha after 21 days. The series is classed as functional.
Series [18] has as its system Setaria faberi. The series is described as follows: Post-emergence herbicidal activity against Setaria faberi (Giant Foxtail) at 500 g a.i./ha after 21 days. Type of series: functional.

The structures appear in SMILES notation.

As to `Cc1cc(C)c(C2C(=O)N3CC(C)(C)CN3C2=O)c(C)c1`, the Activity in [1] is listed as 90%; in [2] it was 90%; in series [3] it was 90%; in series [4], 90%; in series [5], 100%; in [6], 60%.

In the case of `Cc1cc(C)c(C2C(=O)N3CCC(C)CCN3C2=O)c(C)c1`, the Activity is given as 60% in series [1]; 60% in [2]; 80% in [3]; 90% in series [4]; 90% in [5]; 20% in series [6].

In the case of `CCc1cc(C)cc(CC)c1-c1c(OC(=O)OC(C)C)n2n(c1=O)CCOCC2`, the Activity in series [7] is on record as 100%; in series [8], 80%; in [9], 90%; in series [10], 0%; in series [11], 0%; in series [12], 100%.

For `COC1CN2C(=O)C(c3c(C)cc(C)cc3C)C(=O)N2C1`, the Activity in series [1] is 0%; in series [2], 60%; in series [3] it was 20%; in series [4], 20%; in series [5] it was 20%; in series [6], 0%.

Turning to `Cc1cc(C)c(C2C(=O)N3CCCN3C2=O)c(C)c1`, the Activity in series [1] is on record as 40%; in series [2] it was 40%; in series [3] it was 80%; in series [4], 20%; in series [5], 40%; in series [6] it was 0%.

In the case of `Cc1cc(C)c(C2C(=O)N3CCC(C)CN3C2=O)c(C)c1` (stereo unspecified), the Activity in [1] is listed as 90%; in series [2], 50%; in series [3], 90%; in [4], 90%; in series [5], 90%; in [6], 50%.

Consider `CCc1cc(C)cc(CC)c1-c1c(OC(=O)N(CC)CC)n2n(c1=O)CCOCC2`, for which the Activity in [7], in [8], in series [9], in [10], in series [11] and in [12] was 0% each time.

On to `CCc1cc(C)cc(CC)c1-c1c(OS(=O)(=O)N(C)C)n2n(c1=O)CCOCC2`, for which the Activity was determined as 50% in series [7]; 0% in series [8]; 10% in [9]; 0% in [10]; 0% in [11]; 20% in series [12].

Turning to `Cc1cc(C)c(C2C(=O)N3CC(C)C(C)CN3C2=O)c(C)c1` (stereo unspecified), the Activity is 60% in [1]; 60% in [2]; 80% in series [3]; 80% in series [4]; 80% in series [5]; 20% in series [6].

Take `Cc1cc(C)c(C2C(=O)N3CCSCCN3C2=O)c(C)c1`: the Activity is given as 100% in series [13]; 50% in series [14]; 90% in series [15]; 60% in series [16]; 90% in [17]; 90% in series [18].

As to `Cc1cc(C)c(C2C(=O)N(C)N(C)C2=O)c(C)c1`, the Activity in [1] was determined as 20%; in [2], 80%; in series [3], 50%; in [4], 40%; in series [5] it was 40%; in series [6] it was 10%.

Consider `Cc1cc(C)c(-c2c(OC(=O)C(C)(C)C)n3n(c2=O)CCSCC3)c(C)c1`, for which the Activity in [13] is 100%; in [14], 40%; in series [15], 80%; in series [16], 50%; in series [17], 90%; in [18] it was 60%.

`Cc1cc(C)c(-c2c(OC(=O)C(C)(C)C)n3n(c2=O)CCS(=O)(=O)CC3)c(C)c1`: the Activity in series [13] is listed as 50%; in series [14], 10%; in series [15] it was 50%; in [16], 20%; in series [17], 80%; in series [18] it was 10%.

Regarding `CCOc1c(-c2c(CC)cc(C)cc2CC)c(=O)n2n1CCOCC2`, the Activity in series [7] stood at 20%; in series [8], 0%; in series [9], 0%; in series [10], 0%; in series [11], 0%; in [12], 0%.

In the case of `Cc1cc(C)c(C2C(=O)N3C[C@H]4CCCC[C@H]4CN3C2=O)c(C)c1` (stereo partly specified), the Activity in [1] came out at 60%; in [2] it was 60%; in [3], 90%; in [4], 80%; in series [5], 60%; in [6], 50%.

For `Cc1cc(C)c(C2C(=O)N3CCCC(C)N3C2=O)c(C)c1` (stereo unspecified), the Activity in [1] amounted to 80%; in series [2] it was 40%; in [3], 90%; in series [4], 90%; in series [5] it was 40%; in series [6], 20%.

`CCc1cc(C)cc(CC)c1-c1c(OCOC(=O)C(C)(C)C)n2n(c1=O)CCOCC2`: the Activity in [7] worked out at 100%; in [8] it was 60%; in [9] it was 100%; in [10] it was 10%; in series [11], 0%; in [12], 90%.

Take `Cc1cc(C)c(C2C(=O)N3CCS(=O)(=O)CCN3C2=O)c(C)c1`: the Activity is recorded as 60% in series [13]; 20% in series [14]; 60% in [15]; 60% in series [16]; 80% in series [17]; 20% in series [18].

For `Cc1cc(C)c(C2C(=O)N3CCCCCN3C2=O)c(C)c1`, the Activity in series [1] turned out to be 40%; in series [13], 90%; in [14], 60%; in series [15], 90%; in series [16], 50%; in series [17], 90%. For the same compound, the Activity in series [2] is given as 60%; in [3] it was 50%; in [4], 90%; in series [5], 50%; in series [6], 20%; in series [18] it was 90%.

Turning to `Cc1cc(C)c(C2C(=O)N3C[C@H]4CCCC[C@@H]4CN3C2=O)c(C)c1`, the Activity in series [1] is listed as 50%; in series [2], 80%; in series [3], 60%; in series [4] it was 50%; in series [5], 60%; in series [6], 50%.

Take `Cc1cc(C)c(-c2c(OC(=O)C(C)(C)C)n3n(c2=O)CCCCC3)c(C)c1`: the Activity in series [13] was found to be 90%; in series [14] it was 80%; in series [15], 100%; in series [16], 60%; in series [17], 90%; in [18], 90%.

Take `Cc1cc(C)c(C2C(=O)N3CC(C)CN3C2=O)c(C)c1`: the Activity in series [1] is recorded as 50%; in [2], 50%; in [3], 60%; in series [4], 90%; in [5], 50%; in series [6], 40%.

Consider `Cc1cc(C)c(-c2c(OC(=O)C(C)(C)C)n3n(c2=O)CC[S+]([O-])CC3)c(C)c1` (stereo unspecified), for which the Activity was found to be 80% in series [13]; 20% in [14]; 50% in [15]; 20% in series [16]; 80% in series [17]; 40% in series [18].

For `Cc1cc(C)c(C2C(=O)N3CC[S+]([O-])CCN3C2=O)c(C)c1`, the Activity in series [13] turned out to be 90%; in series [14], 40%; in series [15], 80%; in [16] it was 40%; in series [17], 80%; in series [18] it was 60%.

Regarding `Cc1cc(C)c(C2C(=O)N3CCN(C)CCN3C2=O)c(C)c1`, the Activity is on record as 90% in series [13]; 10% in series [14]; 60% in series [15]; 0% in [16]; 10% in series [17]; 40% in series [18].
